The source of these data is patent publication US7202244B2, “Chk-1 inhibitors” (Millennium Pharmaceuticals, Inc., priority 2002, dated 2007).

Assay [1] deals with T1, GST-Chk1 (recombinant human Chk1) (Homo sapiens, UniProt O14757).
T1 construct: made in house; host or cells: insect cells (Bac-to-Bac baculovirus system)
T1 sequence (O14757 1-476): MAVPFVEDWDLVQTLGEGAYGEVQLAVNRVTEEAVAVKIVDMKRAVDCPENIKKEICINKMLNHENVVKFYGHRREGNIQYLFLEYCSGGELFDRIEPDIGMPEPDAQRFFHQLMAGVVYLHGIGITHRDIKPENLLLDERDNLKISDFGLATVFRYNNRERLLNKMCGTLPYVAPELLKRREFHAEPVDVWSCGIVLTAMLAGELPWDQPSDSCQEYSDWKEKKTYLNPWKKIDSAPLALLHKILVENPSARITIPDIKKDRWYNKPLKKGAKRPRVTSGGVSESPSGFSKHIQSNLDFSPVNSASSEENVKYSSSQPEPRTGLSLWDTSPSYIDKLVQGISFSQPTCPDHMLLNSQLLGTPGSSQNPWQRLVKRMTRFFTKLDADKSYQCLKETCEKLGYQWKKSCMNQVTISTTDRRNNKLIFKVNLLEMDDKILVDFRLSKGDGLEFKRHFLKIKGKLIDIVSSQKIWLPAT
As to the kind of experiment: Chk1 FlashPlate kinase assay. In kind it is biochemical. The note with it: 1 uM ATP. Here is the method: Recombinant human Chk1 was expressed as a fusion protein with glutathione S-transferase at the amino-terminus (GST-Chk1) using standard baculovirus vectors and (Bac-to-Bac®) insect cell expression system purchased from GIBCO™ Invitrogen. Recombinant protein expressed in insect cells was purified using glutathione sepharose (Amersham Biotech) using standard procedures described by the manufacturer.
Chk1 FlashPlate® Kinase Assay:
Reactions were incubated for 30 minutes at room temperature, terminated with 50 ul of 50 mM EDTA and 90 ul were transferred to streptavidin-coated FlashPlates® (NEN) and incubated for 1 hour at room temperature. Plates were washed with phosphate buffered salaine containing 0.01% Tween-20 and 10 mM sodium pyrophosphate. Plates were dried, sealed with Topseal™ (NEN) and amount of ^33P incorporated into the peptide substate measure using a Packard Topcount® NXT™ scintillation counter with standard settings.
Compounds of the present invention were tested in the Chk1 FlashPlate® kinase assay described above.

Another assay addresses T2, CHK-1 (Homo sapiens, UniProt O14757).
T2 sequence (O14757 1-476): T1 sequence (O14757 1-476)
As to the kind of experiment: IC50 for the test compound versus CHK-1 (Table 2, assay format not stated). The format is biochemical.

Assay [2] relates to HT29, HCT116 or other cells. The assay can be described thus: WST assay: enhancement of cell killing by DNA damaging agents. To be noted: shift of 1 = no shift; for Shift 78 nM: Chk1 inhibitor fixed at 78 nM with DNA damaging agent titration; for Shift 156 nM: Chk1 inhibitor fixed at 156 nM with DNA damaging agent titration; for Shift 313 nM: Chk1 inhibitor fixed at 313 nM with DNA damaging agent titration; for Shift 625 nM: Chk1 inhibitor fixed at 625 nM with DNA damaging agent titration; for Shift 1.25 μM: Chk1 inhibitor fixed at 1.25 μM with DNA damaging agent titration; for Shift 2.5 μM: Chk1 inhibitor fixed at 2.5 μM with DNA damaging agent titration. The format is cell-based. Here is the method:
HT29, HCT116 (5000 cells/well) or other cells were seeded (75 ul) to 96 well clear bottom plates at densities which provide linear growth curves for 72 hours. Cells were cultured under sterile conditions in appropriate media and for HT29 & HCT116 this media was McCoy's 5A containing 10% Fetal Bovine Serum (FBS). Following the initial seeding of cells they are incubated at 37° C., 5% CO2 from 17 to 24 hours at which time the appropriate DNA damaging agents (camptothecins, 5-fluorouracil and etoposid) are added at increasing concentrations to a point which is capable of causing at least 80% cell killing with in 48 hours. Final volume of all DNA damaging agent & compound additions was 25 ul and assays contained <1% DMSO final. At the same time as DNA Damaging agent addition, Chk1 inhibitor was added at fixed concentrations to each DNA damaging agent titration to observe enhancement of cell killing. In addition, toxicity of each Chk1 inhibitor alone was observed. By doing this over a range of Chk1 inhibitor concentrations we were able to identify compounds which maximally enhance (2–30 fold) cell killing by each DNA damaging agent and generated ≦80% cell killing by the compound alone. Cell viability/cell killing under the conditions described above was determined by addition WST reagent (Roche) according to the manufacturer at 47 hours following DNA damage & Chk1 inhibitor addition and following a 3.5 hour or 2.5 hour incubation at 37 C, 5% CO2, OD450 was measured.

Some results are limits rather than exact numbers.

A word on the IC50: it is the concentration that inhibits the measured activity by half. `COC(=O)c1ccc(OC)c(NC(=O)Nc2cnccn2)c1` [Example 12, 4-Methoxy-3-(3-pyrazin-2-yl-ureido)-benzoic acid methyl ester]: in assay [1], the IC50 is under 1 µM.

For the compound `O=C(Nc1ccc2c(c1)OCO2)Nc1cnccn1` [Example 24, 1-Benzo[1,3]dioxol-5-yl-3-pyrazin-2-yl-urea], the IC50 in assay [1] is under 20 µM.

As for `Cc1cnc(NC(=O)Nc2cc(Cl)ccc2OCCCCN)cn1` [Example 33, 1-[2-(4-Amino-butoxy)-5-chloro-phenyl]-3-(5-methyl-pyrazin-2-yl)-urea], the IC50 on CHK-1 came out at 0.003 µM. Besides, in assay [2], the “Shift 78 nM” value came to 1.8, the “Shift 156 nM” value came out at 2.4, the “Shift 313 nM” value was 2.7 and the “Shift 625 nM” value is 3.1.

Consider `N#Cc1ccc(NC(=O)Nc2cc(Cl)ccc2OCCCN)nc1` [Compound 111], for which, in assay [1], the half-maximal inhibitory concentration (IC50) was under 0.1 µM.

As to `COc1ccc(Cl)c(NC(=O)Nc2cnccn2)c1` [Example 15, 1-(2-Chloro-5-methoxy-phenyl)-3-pyrazin-2-yl-urea], the IC50 in assay [1] is under 1 µM.

Take `COc1ccc(Cl)cc1NC(=O)Nc1ccncn1` [Example 16, 1-(5-Chloro-2-methoxy-phenyl)-3-pyrimidin-4-yl-urea]: in assay [1], the IC50 was under 20 µM.

As to `COc1ccc(Cl)cc1NC(=O)Nc1cnccn1` [Example 6, 1-(5-Chloro-2-methoxy-phenyl)-3-pyrazin-2-yl-urea], the IC50 in assay [1] was under 1 µM.

Regarding `COc1ccc(NC(C)=O)cc1NC(=O)Nc1cnccn1` [Example 11, N-[4-Methoxy-3-(3-pyrazin-2-yl-ureido)-phenyl]-acetamide], in assay [1], the IC50 was under 1 µM.

For `O=C(Nc1cnccn1)Nc1cc(Cl)ccc1OCc1cccnc1` [Example 27, 1-[5-Chloro-2-(pyridin-3-ylmethoxy)-phenyl]-3-pyrazin-2-yl-urea], the IC50 in assay [1] is under 1 µM.

With `O=C(Nc1cnccn1)Nc1cnccn1` [Example 23, 1,3-Di-pyrazin-2-yl-urea], the IC50 in assay [1] was under 20 µM.

In the case of `COc1ccccc1NC(=O)Nc1cnccn1` [Example 17, 1-(2-Methoxy-phenyl)-3-pyrazin-2-yl-urea], the IC50 in assay [1] is under 20 µM.

On to `Cc1cnc(NC(=O)Nc2cc(Cl)ccc2OCCN(C)C)cn1` [Example 3, 1-[5-Chloro-2-(2-dimethylamino-ethoxy)-phenyl]-3-(5-methyl-pyrazin-2-yl)-urea], for which, in assay [1], the half-inhibitory concentration (IC50) was under 0.1 µM.

With `Cc1cnc(NC(=O)Nc2cc(Cl)ccc2OCCCN)cn1` [Example 28], 0.004 µM corresponded to half-maximal inhibition against CHK-1 (IC50). In addition, in assay [2], the “Shift 78 nM” value is 2.7, the “Shift 156 nM” value turned out to be 3.4, the “Shift 313 nM” value came to 5.3 and the “Shift 625 nM” value came to 6.8. Also, in assay [2], the “Shift 1.25 μM” value was “toxic” and the “Shift 2.5 μM” value is listed as “toxic”.

The compound `NCCCOc1ccc(Cl)cc1NC(=O)Nc1cnc2ccccc2n1` [Example 31, 1-[2-(3-Amino-propoxy)-5-chloro-phenyl]-3-quinoxalin-2-yl-urea] displayed an IC50 at CHK-1 of 0.005 µM. For the same compound, in assay [2], the “Shift 156 nM” value worked out at 1.3, the “Shift 313 nM” value was found to be 1.8, the “Shift 625 nM” value is listed as 2.8 and the “Shift 1.25 μM” value came to 4.4. Moreover, the “Shift 2.5 μM” value in assay [2] is given as 6.2.

Turning to `NCCCOc1ccc(Cl)cc1NC(=O)Nc1cnccn1` [Example 29, 1-[2-(3-Amino-propoxy)-5-chloro-phenyl]-3-pyrazin-2-yl-urea], on CHK-1, the IC50 came out at 0.0025 µM. Also, in assay [2], the “Shift 78 nM” value is given as 2.5, the “Shift 156 nM” value is recorded as 3.1, the “Shift 313 nM” value is 4.5 and the “Shift 625 nM” value is 5.0. Besides, in assay [2], the “Shift 1.25 μM” value is “toxic” and the “Shift 2.5 μM” value was “toxic”.

Turning to `COc1cc(Cl)c(C)cc1NC(=O)Nc1cnccn1` [Compound 46], the IC50 in assay [1] is under 1 µM.

In the case of `O=C(Nc1ccc(N2CCCCC2)cc1)Nc1cnccn1` [Example 21, 1-(4-Piperidin-1-yl-phenyl)-3-pyrazin-2-yl-urea], the IC50 in assay [1] was under 20 µM.

For the compound `COc1ccc(C(F)(F)F)cc1NC(=O)Nc1cnccn1` [Example 13, 1-(2-Methoxy-5-trifluoromethyl-phenyl)-3-pyrazin-2-yl-urea], the IC50 in assay [1] is under 1 µM.

As for `Cc1cnc(NC(=O)Nc2cc(Cl)ccc2OCC(C)(C)CN)cn1` [Compound 109], the 50% inhibitory concentration (IC50) in assay [1] was under 0.1 µM.

Regarding `CC(C)CCOc1ccc(Cl)cc1NC(=O)Nc1cnccn1` [Example 7, 1-[5-Chloro-2-(3-methyl-butoxy)-phenyl]-3-pyrazin-2-yl-urea], in assay [1], the IC50 was under 1 µM.

On to `COc1ccc(NC(=O)Nc2cnccn2)cc1Cl` [Example 18, 1-(3-Chloro-4-methoxy-phenyl)-3-pyrazin-2-yl-urea], for which the IC50 in assay [1] is under 20 µM.

In the case of `COc1ccc(C)cc1NC(=O)Nc1cnccn1` [Example 8, 1-(2-Methoxy-5-methyl-phenyl)-3-pyrazin-2-yl-urea], the IC50 in assay [1] was under 1 µM.

Regarding `O=C(Nc1cnccn1)Nc1cc(Cl)ccc1OCCN1CC1` [Example 26, 1-[2-(2-Aziridin-1-yl-ethoxy)-5-chloro-phenyl]-3-pyrazin-2-yl-urea], the IC50 in assay [1] is under 1 µM.

As for `O=C(Nc1cnccn1)Nc1ccccc1OC(F)(F)F` [Example 9, 1-Pyrazin-2-yl-3-(2-trifluoromethoxy-phenyl)-urea], the IC50 in assay [1] is under 1 µM.

Turning to `Cc1cnc(NC(=O)Nc2cc(Cl)ccc2OCCCNC2CCC2)cn1` [Compound 112], the IC50 in assay [1] is under 0.1 µM.

As for `O=C(Nc1cccc(Cl)c1)Nc1cnccn1` [Example 19, 1-(3-Chloro-phenyl)-3-pyrazin-2-yl-urea], in assay [1], the IC50 was under 20 µM.

On to `COc1cncc(NC(=O)Nc2cc(Cl)ccc2OCCCN)n1` [Example 34], for which the IC50 on CHK-1 was determined as 0.02 µM. Besides, in assay [2], the “Shift 1.25 μM” value was 2.4 and the “Shift 2.5 μM” value stood at 3.031.

`Cc1ccc(Cl)cc1NC(=O)Nc1cnccn1` [Example 10, 1-(5-Chloro-2-methyl-phenyl)-3-pyrazin-2-yl-urea]: the IC50 in assay [1] is under 1 µM.

On to `CN(C)CCCOc1ccc(Cl)cc1NC(=O)Nc1cnc2ccccc2n1` [Example 30, 1-[5-Chloro-2-(3-dimethylamino-propoxy)-phenyl]-3-quinoxalin-2-yl-urea], for which the IC50 at CHK-1 amounted to 0.019 µM. Moreover, in assay [2], the “Shift 1.25 μM” value worked out at 1 and the “Shift 2.5 μM” value was determined as 1.4.

On to `COc1ccc(NC(=O)Nc2cnccn2)c(OC)c1` [Example 14, 1-(2,4-Dimethoxy-phenyl)-3-pyrazin-2-yl-urea], for which, in assay [1], the IC50 was under 1 µM.

Turning to `Cc1ccc(OCCCN(C)C)c(NC(=O)Nc2cnccn2)c1` [Example 35, 1-[5-Methyl-2-(3-dimethylamino-propoxy)-phenyl]-3-pyrazin-2-yl-urea], it took 0.016 µM to reach half-maximal inhibition on CHK-1 (IC50). Further, in assay [2], the “Shift 1.25 μM” value stood at 2.1 and the “Shift 2.5 μM” value is listed as 2.9.

With `NCCCOc1ccc(Cl)cc1NC(=O)Nc1ccc(C(N)=O)cn1` [Compound 110], in assay [1], the IC50 was under 0.1 µM.

`NCCOc1ccc(Cl)cc1NC(=O)Nc1cnccn1` [Example 32, 1-[2-(2-Amino-ethoxy)-5-chloro-phenyl]-3-pyrazin-2-yl-urea]: the midpoint of inhibition at CHK-1, the IC50, lay at 0.016 µM. Also, in assay [2], the “Shift 1.25 μM” value is recorded as 1.2 and the “Shift 2.5 μM” value worked out at 1.4.

In the case of `O=C(Nc1cnccn1)Nc1cc(Cl)ccc1OCCN1CCOCC1` [Example 5, 1-[5-Chloro-2-(2-morpholin-4-yl-ethoxy)-phenyl]-3-pyrazin-2-yl-urea], the half-inhibitory concentration (IC50) in assay [1] was under 1 µM.
